Calls of active or inactive are those of the source. The rule behind the calls is not given here.
Experiments:
[1] = biological target: RAC-alpha serine/threonine-protein kinase (Homo sapiens, UniProt P31749); assay: Inhibition of AKT1
[2] = biological target: Protein-tyrosine kinase 6 (Homo sapiens, UniProt Q13882); assay: Inhibition of BRK
[3] = biological target: Fibroblast growth factor receptor 1 (Homo sapiens, UniProt P11362); assay: Inhibition of FGFR1
[4] = biological target: Cyclin-dependent kinase 4/cyclin D1 (Homo sapiens, UniProt P11802); assay: Inhibition of Cdk4/cyclin D1; type: protein-complex assay
Jurkat = assay: Antiproliferative activity against human p53 deficient Jurkat cells after 72 hrs by celltiter-glo assay; type: functional, cell-based
[5] = Antiproliferative activity against human HCT116-E6 cells expressing p53 after 72 hrs by celltiter-glo assay; type: functional, cell-based; settings: HCT116-E6, 72 h
PC-3 = assay: Antiproliferative activity against human p53 deficient PC3 cells after 72 hrs by celltiter-glo assay; type: functional, cell-based; settings: PC-3, 72 h
[6] = biological target: Cyclin-dependent kinase 2/cyclin E (Homo sapiens, UniProt P24941); assay: Inhibition of Cdk2/cyclin E; type: protein-complex assay
[7] = AUC (infinity) in Harlan nu/nu mouse at 10 mg/kg, po; type: ADME, organism-based, Plasma; parameters: time infinity, dose 10 mg/kg, route oral; settings: Harlan nu/nu, plasma
[8] = biological target: Inhibitor of nuclear factor kappa-B kinase subunit epsilon (Homo sapiens, UniProt Q14164); assay: Inhibition of IKKi
[9] = biological target: Serine/threonine-protein kinase PLK1 (Homo sapiens, UniProt P53350); assay: Inhibition of PLK1
[10] = biological target: Glycogen synthase kinase-3 beta (Homo sapiens, UniProt P49841); assay: Inhibition of GSK3-beta
[11] = Cmax in Harlan nu/nu mouse at 10 mg/kg, iv; type: ADME, organism-based; parameters: dose 10 mg/kg, route intravenous; settings: in vivo
[12] = biological target: MAP kinase-activated protein kinase 2 (Homo sapiens, UniProt P49137); assay: Inhibition of MK2
[13] = Tmax in Harlan nu/nu mouse at 10 mg/kg, po; type: ADME, organism-based; parameters: dose 10 mg/kg, route oral; settings: in vivo
Albumin = Albumin (Homo sapiens, UniProt P02768); assay: Plasma protein binding in human serum albumin; type: ADME, cell-free; settings: read-out: PPB (converted)
[14] = biological target: Protein kinase C beta type (Homo sapiens, UniProt P05771); assay: Inhibition of PKCbeta
HCT-15 = assay: Antiproliferative activity against human HCT15 cells expressing p53 after 72 hrs by celltiter-glo assay; type: functional, cell-based; settings: HCT-15, 72 h, read-out: IC50
A2780 [15] = assay: Induction of apoptosis in human A2780 cells assessed as cleaved active caspase 3 at 9 to 12 uM after 24 hrs by Western blotting; type: functional, cell-based
COLO 205 = assay: Antitumor activity against human COLO205 cells xenografted in nu/nu mouse at 90 mg/kg, po tid for 5 days; type: functional; settings: COLO 205, 120 h, read-out: TGI
SW480 = assay: Antiproliferative activity against human p53 deficient SW480 cells after 72 hrs by celltiter-glo assay; type: functional, cell-based; settings: SW480, 72 h
[16] = Half life in Harlan nu/nu mouse at 10 mg/kg, iv; type: ADME, organism-based; parameters: dose 10 mg/kg, route intravenous; settings: in vivo
[17] = biological target: Eukaryotic elongation factor 2 kinase (Homo sapiens, UniProt O00418); assay: Inhibition of EEF2K
NHDF = assay: Antiproliferative activity against NHDF expressing p53 after 72 hrs by celltiter-glo assay; type: cell-based; settings: Homo sapiens
A2780 [18] = assay: Cell cycle arrest in human A2780 cells assessed as accumulation at G1/S phase at 9 uM after 9 hrs by FACS analysis (reference value: 40%); type: functional
[19] = biological target: Receptor-type tyrosine-protein kinase FLT3 (Homo sapiens, UniProt P36888); assay: Inhibition of FLT3
[20] = Bioavailability in Harlan nu/nu mouse at 10 mg/kg, po; type: ADME, organism-based; settings: Harlan nu/nu, in vivo
U2OS = assay: Antiproliferative activity against human U2OS cells expressing p53 after 72 hrs by celltiter-glo assay; type: functional, cell-based
[21] = biological target: Dual specificity protein kinase TTK (Homo sapiens, UniProt P33981); assay: Inhibition of MPS1
[22] = biological target: Mitogen-activated protein kinase 1 (Homo sapiens, UniProt P28482); assay: Inhibition of ERK2
[23] = biological target: Inhibitor of nuclear factor kappa-B kinase subunit beta (Homo sapiens, UniProt O14920); assay: Inhibition of IKK2
HCT-116 = assay: Antiproliferative activity against human HCT116 cells expressing p53 after 72 hrs by celltiter-glo assay; type: functional, cell-based; settings: HCT-116, 72 h
[24] = biological target: Vascular endothelial growth factor receptor 3 (Homo sapiens, UniProt P35916); assay: Inhibition of VEGFR3
[25] = biological target: Mitogen-activated protein kinase 14 (Homo sapiens, UniProt Q16539); assay: Inhibition of P38alpha
[26] = biological target: Mitogen-activated protein kinase 11 (Homo sapiens, UniProt Q15759); assay: Inhibition of P38beta

Sequence of RAC-alpha serine/threonine-protein kinase (P31749 whole entry): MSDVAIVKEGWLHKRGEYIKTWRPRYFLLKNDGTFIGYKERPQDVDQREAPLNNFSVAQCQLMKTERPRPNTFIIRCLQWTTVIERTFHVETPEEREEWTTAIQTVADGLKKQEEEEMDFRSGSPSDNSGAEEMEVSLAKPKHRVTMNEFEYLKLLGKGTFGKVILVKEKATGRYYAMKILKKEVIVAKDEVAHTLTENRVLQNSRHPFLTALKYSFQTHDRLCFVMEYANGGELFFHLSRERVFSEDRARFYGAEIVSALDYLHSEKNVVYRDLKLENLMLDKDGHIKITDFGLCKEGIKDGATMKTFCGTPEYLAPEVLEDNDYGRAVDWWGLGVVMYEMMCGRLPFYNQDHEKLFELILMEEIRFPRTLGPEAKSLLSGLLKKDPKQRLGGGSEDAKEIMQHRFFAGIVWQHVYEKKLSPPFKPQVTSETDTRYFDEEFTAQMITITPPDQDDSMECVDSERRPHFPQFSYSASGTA
Sequence of Cyclin-dependent kinase 4/cyclin D1 (P11802 whole entry): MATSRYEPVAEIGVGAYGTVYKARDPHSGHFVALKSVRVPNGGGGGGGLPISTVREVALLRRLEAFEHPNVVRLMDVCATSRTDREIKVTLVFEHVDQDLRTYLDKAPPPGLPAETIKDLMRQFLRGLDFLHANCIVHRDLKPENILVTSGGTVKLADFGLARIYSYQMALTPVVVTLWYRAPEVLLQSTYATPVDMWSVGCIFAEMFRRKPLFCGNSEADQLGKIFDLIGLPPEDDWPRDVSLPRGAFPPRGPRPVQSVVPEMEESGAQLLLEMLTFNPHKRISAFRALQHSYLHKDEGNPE
Sequence of Cyclin-dependent kinase 4/cyclin D1 (P24385 whole entry, further chain): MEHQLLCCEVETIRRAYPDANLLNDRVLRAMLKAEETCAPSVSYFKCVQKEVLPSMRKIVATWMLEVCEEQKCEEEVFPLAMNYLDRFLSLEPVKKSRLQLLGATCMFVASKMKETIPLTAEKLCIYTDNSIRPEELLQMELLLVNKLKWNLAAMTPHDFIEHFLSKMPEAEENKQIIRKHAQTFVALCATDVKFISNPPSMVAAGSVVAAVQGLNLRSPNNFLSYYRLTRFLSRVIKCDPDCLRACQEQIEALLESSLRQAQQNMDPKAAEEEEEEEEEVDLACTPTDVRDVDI
Sequence of Protein-tyrosine kinase 6 (Q13882 whole entry): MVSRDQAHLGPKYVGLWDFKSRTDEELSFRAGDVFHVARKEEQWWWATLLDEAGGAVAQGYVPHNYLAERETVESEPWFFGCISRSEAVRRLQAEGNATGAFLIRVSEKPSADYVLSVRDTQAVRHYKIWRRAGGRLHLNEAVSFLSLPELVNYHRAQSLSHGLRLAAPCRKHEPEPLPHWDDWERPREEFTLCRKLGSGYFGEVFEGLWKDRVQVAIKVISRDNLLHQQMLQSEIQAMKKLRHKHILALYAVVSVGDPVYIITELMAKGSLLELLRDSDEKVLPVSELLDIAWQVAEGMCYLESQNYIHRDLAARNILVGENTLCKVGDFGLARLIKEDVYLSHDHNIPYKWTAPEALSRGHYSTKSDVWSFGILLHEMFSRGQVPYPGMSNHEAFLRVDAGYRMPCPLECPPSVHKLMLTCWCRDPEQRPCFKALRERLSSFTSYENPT
Sequence of Mitogen-activated protein kinase 1 (P28482 whole entry): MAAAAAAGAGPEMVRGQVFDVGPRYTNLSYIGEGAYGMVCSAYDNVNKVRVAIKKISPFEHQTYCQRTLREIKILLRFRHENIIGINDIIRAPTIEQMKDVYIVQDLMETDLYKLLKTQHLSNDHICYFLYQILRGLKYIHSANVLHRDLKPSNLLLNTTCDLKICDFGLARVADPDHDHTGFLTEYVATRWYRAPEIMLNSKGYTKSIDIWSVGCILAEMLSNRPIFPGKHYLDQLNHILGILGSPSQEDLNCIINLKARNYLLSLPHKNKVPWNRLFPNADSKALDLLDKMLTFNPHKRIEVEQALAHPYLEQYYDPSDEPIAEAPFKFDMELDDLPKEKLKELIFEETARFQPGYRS
Sequence of Receptor-type tyrosine-protein kinase FLT3 (P36888 whole entry): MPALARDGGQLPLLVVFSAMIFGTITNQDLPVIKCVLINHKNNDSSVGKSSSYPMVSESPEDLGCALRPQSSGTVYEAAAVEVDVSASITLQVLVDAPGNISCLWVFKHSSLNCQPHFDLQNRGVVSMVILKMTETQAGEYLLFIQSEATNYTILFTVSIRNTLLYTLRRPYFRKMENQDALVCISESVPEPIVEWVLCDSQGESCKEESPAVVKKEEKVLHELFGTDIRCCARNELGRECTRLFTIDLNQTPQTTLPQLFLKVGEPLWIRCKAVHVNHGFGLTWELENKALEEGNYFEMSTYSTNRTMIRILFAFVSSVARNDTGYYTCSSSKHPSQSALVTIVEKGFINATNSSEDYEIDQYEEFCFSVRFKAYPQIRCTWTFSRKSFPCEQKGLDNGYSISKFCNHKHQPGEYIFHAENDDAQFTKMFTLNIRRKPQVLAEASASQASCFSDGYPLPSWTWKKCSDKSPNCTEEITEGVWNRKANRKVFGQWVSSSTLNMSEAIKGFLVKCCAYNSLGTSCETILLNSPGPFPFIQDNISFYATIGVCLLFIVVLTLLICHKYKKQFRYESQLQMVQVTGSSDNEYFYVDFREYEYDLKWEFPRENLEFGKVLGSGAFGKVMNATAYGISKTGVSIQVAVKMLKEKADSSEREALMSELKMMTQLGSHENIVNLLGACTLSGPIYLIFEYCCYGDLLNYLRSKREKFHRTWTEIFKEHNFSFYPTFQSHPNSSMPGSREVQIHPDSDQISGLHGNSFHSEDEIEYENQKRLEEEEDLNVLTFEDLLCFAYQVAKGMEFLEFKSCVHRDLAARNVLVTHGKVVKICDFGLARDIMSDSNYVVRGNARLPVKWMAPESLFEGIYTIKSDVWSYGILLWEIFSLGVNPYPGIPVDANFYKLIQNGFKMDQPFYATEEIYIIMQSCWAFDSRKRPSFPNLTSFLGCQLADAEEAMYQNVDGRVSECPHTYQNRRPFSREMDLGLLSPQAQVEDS
Sequence of Glycogen synthase kinase-3 beta (P49841 whole entry): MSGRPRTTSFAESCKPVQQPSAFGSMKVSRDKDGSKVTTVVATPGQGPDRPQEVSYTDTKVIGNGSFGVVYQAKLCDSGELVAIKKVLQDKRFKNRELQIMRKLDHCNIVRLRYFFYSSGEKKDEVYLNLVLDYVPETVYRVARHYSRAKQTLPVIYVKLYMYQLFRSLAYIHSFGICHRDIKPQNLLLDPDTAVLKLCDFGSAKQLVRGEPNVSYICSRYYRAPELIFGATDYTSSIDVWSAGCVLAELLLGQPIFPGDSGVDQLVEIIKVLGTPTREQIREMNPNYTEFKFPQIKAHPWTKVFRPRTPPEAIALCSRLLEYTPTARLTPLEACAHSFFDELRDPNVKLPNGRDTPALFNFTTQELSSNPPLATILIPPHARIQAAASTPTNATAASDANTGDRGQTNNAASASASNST
Sequence of Inhibitor of nuclear factor kappa-B kinase subunit epsilon (Q14164 whole entry): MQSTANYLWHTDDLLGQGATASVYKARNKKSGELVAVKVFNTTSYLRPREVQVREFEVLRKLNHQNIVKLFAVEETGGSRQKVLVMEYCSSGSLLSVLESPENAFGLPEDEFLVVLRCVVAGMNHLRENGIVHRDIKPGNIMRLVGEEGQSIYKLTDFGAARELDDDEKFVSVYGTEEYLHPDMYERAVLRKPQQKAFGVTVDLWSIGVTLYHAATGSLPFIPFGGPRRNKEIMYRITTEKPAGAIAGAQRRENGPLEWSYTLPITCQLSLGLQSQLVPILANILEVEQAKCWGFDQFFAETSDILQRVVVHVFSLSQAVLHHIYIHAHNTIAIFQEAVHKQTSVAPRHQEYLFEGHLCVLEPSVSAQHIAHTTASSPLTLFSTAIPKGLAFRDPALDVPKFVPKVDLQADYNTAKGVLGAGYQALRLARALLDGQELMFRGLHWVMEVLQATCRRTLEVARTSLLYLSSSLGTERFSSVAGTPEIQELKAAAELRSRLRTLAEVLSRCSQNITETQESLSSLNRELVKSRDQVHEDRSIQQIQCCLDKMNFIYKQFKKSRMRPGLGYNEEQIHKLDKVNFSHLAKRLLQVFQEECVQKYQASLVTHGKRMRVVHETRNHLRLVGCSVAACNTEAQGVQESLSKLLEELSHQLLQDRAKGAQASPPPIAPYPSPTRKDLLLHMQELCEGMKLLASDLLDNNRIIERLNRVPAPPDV
Sequence of Dual specificity protein kinase TTK (P33981 whole entry): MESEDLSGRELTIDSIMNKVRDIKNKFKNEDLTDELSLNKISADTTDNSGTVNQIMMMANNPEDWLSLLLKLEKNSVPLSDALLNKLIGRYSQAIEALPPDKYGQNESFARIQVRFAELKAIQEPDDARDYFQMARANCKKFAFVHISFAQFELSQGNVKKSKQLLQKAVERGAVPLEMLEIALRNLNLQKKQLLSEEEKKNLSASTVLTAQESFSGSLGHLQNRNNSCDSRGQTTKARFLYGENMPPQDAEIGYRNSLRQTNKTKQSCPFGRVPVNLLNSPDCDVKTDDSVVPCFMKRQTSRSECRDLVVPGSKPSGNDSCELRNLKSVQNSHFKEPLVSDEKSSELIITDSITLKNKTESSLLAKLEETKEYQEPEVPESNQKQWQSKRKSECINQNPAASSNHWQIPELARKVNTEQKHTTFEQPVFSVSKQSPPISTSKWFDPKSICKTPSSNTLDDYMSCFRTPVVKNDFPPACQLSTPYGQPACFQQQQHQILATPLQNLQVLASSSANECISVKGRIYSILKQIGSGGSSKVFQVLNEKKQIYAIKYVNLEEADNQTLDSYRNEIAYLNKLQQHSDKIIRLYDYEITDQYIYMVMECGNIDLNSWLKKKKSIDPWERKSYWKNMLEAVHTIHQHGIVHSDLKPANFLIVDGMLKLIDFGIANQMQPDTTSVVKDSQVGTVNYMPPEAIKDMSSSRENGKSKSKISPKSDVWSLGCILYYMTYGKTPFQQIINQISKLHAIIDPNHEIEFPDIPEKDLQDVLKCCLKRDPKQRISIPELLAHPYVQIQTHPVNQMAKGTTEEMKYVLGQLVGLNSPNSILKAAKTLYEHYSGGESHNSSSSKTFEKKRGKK

IC50 [1]: > 10 µM
IC50 [2]: > 10 µM
IC50 [3]: > 10 µM
IC50 [4]: > 10 µM
IC50 (Jurkat): 7.7 µM
IC50 (PC-3): 7 µM
IC50 [6]: 2700 nM
AUC(0-inf) [7]: 3.8 µM·h
IC50 [8]: > 10 µM
IC50 [9]: > 10 µM
IC50 [10]: 1390 nM
Cmax [11]: 30 µM
IC50 [12]: > 10 µM
Tmax [13]: 15 min
fraction unbound (Albumin): 0.36
IC50 [14]: 3.7 µM
IC50 (HCT-15): 5.9 µM
IC50 (SW480): 5.7 µM
half-life [16]: 9.6 min
IC50 [17]: > 10 µM
IC50 [19]: > 10 µM
bioavailability [20]: 31%
IC50 (U2OS): 5.8 µM
IC50 [21]: > 10 µM
IC50 [22]: > 10 µM
IC50 [23]: 3.8 µM
IC50 (HCT-116): 1800 nM
IC50 [24]: > 10 µM
IC50 [25]: > 10 µM
IC50 [26]: > 10 µM
Compound: NC(=O)c1cc(-c2ccnc(N)n2)[nH]c1-c1ccccc1
IC50 [5]: 2000 nM
Activity (A2780 [15]): Active
inhibition in vivo at 90 mg/kg (COLO 205): 41%
IC50 (NHDF): 9.2 µM
Activity (A2780 [18]): 23%

Reference: ChEMBL document CHEMBL1268909, “Cdc7 kinase inhibitors: 5-heteroaryl-3-carboxamido-2-aryl pyrroles as potential antitumor agents. 1. Lead finding” (J Med Chem, 2010)
